Measurements: patent US7582312B2, “Methods to produce lung surfactant formulations via lyophilization and formulations and uses thereof” (Discovery Laboratories, Inc., priority 2004, dated 2009)
Values after ≈ are worked out from the molar mass of the structure shown. Where no end group is shown, it is not given here.

Assays:
[1] = Individual component solubilities in t-butanol/water solutions (HPLC); conditions: about 37° C.; for solubility at 30 min: 37 °C, thermodynamic from solid
Protocol: (§1) Aliquots of each lipid and peptide were accurately weighed into 1.5 ml Eppendorf tubes. […] To each tube 0.2 ml of solvent was added. Each tube was vortexed and then bath sonicated for several minutes to facilitate dissolution. Samples were then placed in a 37° C. bath for approximately 30 minutes and then removed and placed on the counter for up to 30 minutes. […] Three independent Eppendorf tubes were prepared and tested for each solute-solvent combination. Visual observations were made of each tube as to whether they appeared a) clear (i.e., apparently fully soluble), b) to contain non-dissolved material, or c) indeterminate. Small aliquots of each tube were then taken, diluted in the HPLC running buffer, and analyzed by HPLC. HPLC was performed using a CIS column by established methods.

[2] = Achievable dissolution concentrations of components in 60% TBA cosolvent without NaCl; conditions: for Measured Concentration, 1: replicate 1; for Measured Concentration, 2: replicate 2; for Measured Concentration, 3: replicate 3; for Measured Concentration, AVG: room temperature, individual component
[3] = physchem; conditions: 37 °C, aqueous with cosolvent or surfactant or cyclodextrin, thermodynamic from solid
Protocol: as §1

[4] = 50% t-butanol in water, aqueous with cosolvent or surfactant or cyclodextrin
[5] = 80% t-butanol in water, organic solvent or mixture
[6] = 90% t-butanol in water, organic solvent or mixture
[7] = 95% t-butanol in water, organic solvent or mixture
[8] = 100% t-butanol, organic solvent or mixture

| Compound | solubility at 30 min [1, 4] [mg/mL] | solubility at 30 min [1, 5] [mg/mL] | solubility at 30 min [1, 6] [mg/mL] | solubility at 30 min [1, 7] [mg/mL] | solubility at 30 min [1, 8] [mg/mL] | Measured Concentration, 1 [2] [mg/mL] | Measured Concentration, 2 [2] [mg/mL] | Measured Concentration, 3 [2] [mg/mL] | Measured Concentration, AVG [2] [mg/mL] | Solubility ([1]; 50% t-butanol in water) [mg/mL] | Solubility ([1]; 80% t-butanol in water) [mg/mL] | Solubility ([1]; 90% t-butanol in water) [mg/mL] | Solubility ([1]; 95% t-butanol in water) [mg/mL] | Solubility ([1]; 97.5% t-butanol in water) [mg/mL] | Solubility ([1]; 99% t-butanol in water) [mg/mL] | Solubility ([1]; 100% t-butanol) [mg/mL] | Solubility [3] [mg/mL] |
| --- | --- | --- | --- | --- | --- | --- | --- | --- | --- | --- | --- | --- | --- | --- | --- | --- | --- |
| CCCCCCCCCCCCCCCCO [CA, cetyl alcohol] | 14 (≈ 57.7 mM) | > 224 | > 229 | > 251 | > 270 |  |  |  |  |  |  |  |  |  |  |  |  |
| CCCCCCCCCCCCCCCC(=O)OC[C@H](COP(=O)([O-])OCC[N+](C)(C)C)OC(=O)CCCCCCCCCCCCCCC [DPPC, dipalmitoyl phosphatidylcholine] | > 49 | > 133 | > 145 | > 150 | > 150 | 34.8 | 35.0 | 35.2 | 35.0 |  |  |  |  |  |  |  |  |
| CCCCCCCC/C=C\CCCCCCCC(=O)O[C@H](COC(=O)CCCCCCCCCCCCCCC)COP(=O)(O)OCC(O)CO (some centres unmarked) [POPG, palmitoyloleoyl phosphatidylglycerol] |  |  |  |  |  | 298.4 | 283.7 | 290.6 | 290.9 | >47 | >119 | >160 | 34 (≈ 45.4 mM) | 20 (≈ 26.7 mM) | <5 | <5 |  |
| KLLLLKLLLLKLLLLKLLLLK [KL4] |  |  |  |  |  |  |  |  |  |  |  |  |  |  |  |  | > 67 |
